Reference: US6069172A, “(R)-2-(3-benzoylphenyl) propionic acid salts and pharmaceutical preparations containing them” (priority 1998, dated 2000)

Tests used:
T-cell = conditions: stimulated by these agonists; cited from earlier work
PMN leukocytes = conditions: cited from earlier work
[1] = tested on: carrageenin-induced oedema; conditions: compared with racemate and (S) enantiomer; rats; cited from earlier work
[2] = rats; in words; cited from earlier work
[3] = tested on: ultra-violet radiation-induced epidermal erythema; conditions: topic; guinea pigs; cited from earlier work
pain perception = conditions: men; compared with (S) enantiomers; cited from earlier work
gastrolesive action = conditions: in vivo
platelet aggregation = assay: inhibitory action on platelet aggregation
TXB2 synthesis = TXB2 synthesis inhibition in human blood; assay type: cell-based; conditions: index of platelet antiaggregating properties
[4] = tested on: croton oil-induced ear oedema; conditions: compared with racemate and (S) enantiomer; mice; cited from earlier work
neutrophil = conditions: Ca^++ ionophore and FLMP; cited from earlier work
PMN leucocyte = conditions: 200 mg for 10 days; cited from earlier work
[5] = tested on: carrageenin-induced pleural exudate; PMN cell migration; conditions: cited from earlier work
[6] = tested on: chemotactic activity induced by zymosan; conditions: healthy volunteers and patients; cited from earlier work

For “4-[3-(4-Fluorophenyl)]-2-[[4-(N-3-(2-quinolinmethoxy) phenyl)]amino]phenylpropylbenzoic acid [ETH-615]”, the T-cell migration (T-cell) is given as “no effects”, the “chemotaxis of PMN leukocytes induced by FLMP” value (PMN leukocytes; FLMP) is given as “only slightly inhibited” and the “chemotaxis of PMN leukocytes induced by IL-8 or LTB4” value (PMN leukocytes; IL-8 or LTB4) is given as “clearly inhibited”.
For `C[C@@H](C(=O)O)c1cccc(C(=O)c2ccccc2)c1` [(R)-ketoprofen, (R)-2-(3-benzoylphenyl)propionic acid], the “inhibition of COX-2” value (COX-2) is listed as “do not inhibit”, the “in vivo antiinflammatory effectiveness, carrageenin-induced oedema” value [1] is listed as “significantly lower than those of the racemate and of the (S) enantiomer” and the “conversion of (R) into (S) enantiomer” value [2] is listed as “completely converted”. The “Protection, UV radiation-induced epidermal erythema” value [3] was 53.1±4.6%, the “inhibition of pain perception” value (pain perception) was “efficacy at least similar to that of the (S) enantiomers” and the gastrolesive action (gastrolesive action) was “substantially devoid”. The “inhibition of COX-1” value (COX-1) was “do not inhibit”, the “inhibitory action on platelet aggregation” value (platelet aggregation) was “substantially devoid” and the IC50 (TXB2 synthesis) was 9.75 ± 0.75 mM. For the same compound, the “in vivo antiinflammatory effectiveness, croton oil-induced ear oedema” value [4] was “significantly lower than those of the racemate and of the (S) enantiomer”.
For `CC(C(=O)O)c1cccc(C(=O)c2ccccc2)c1` (racemic) [ketoprofen], the “inhibition of neutrophil activation / blockade of Ca^++ ion entry” value (neutrophil) is listed as “completely inactive”, the PMN leucocyte fagocytosis (PMN leucocyte) is listed as “reduction” and the “bactericidal function of PMN” value (PMN leucocyte) is listed as “not affected”. For the same compound, the “migration of cells into the pleural cavity, later study” value ([5]; later demonstration against the earlier one) was “exatly the opposite”, the “migration of cells into the pleural cavity” value ([5]; oral, PMN cells vs monocytes, thought in 1975) was “inhibit the migration of PMN cells, but not that of monocytes” and the “carrageenin-induced formation of pleural exudate” value ([5]; oral) was “inhibited”. The “chemotactic activity induced by zymosan” value [6] was “inhibited”.
